# Results taken from ChEMBL document CHEMBL3045406, “Enantioselective Relieving Activity of α-Methylbenzylphenylureas toward Bensulfuron-methyl Injury to Rice (Oryza sativa)” (Biosci Biotechnol Biochem, 1999).
# Experiments:
# [1] = Hydrophobicity, log K of the compound; assay type: physicochemical; details: octanol/water
# [2] = tested on: Oryza sativa; test: Relieving activity against bensulfuron-methyl induced injury to Oryza sativa (rice) assessed as growth rate at 1 uM (Rbv = 46 to 53%); assay type: functional
# [3] = tested on: Oryza sativa; test: Effect on Oryza sativa (rice) assessed as growth rate at 10 uM relative to control; assay type: organism-based; details: in vivo
# [4] = tested on: Oryza sativa; test: Safener indices, ratio of compound effect of Oryza sativa (rice) growth rate to relieving activity against bensulfuron-methyl induced injury to Oryza sativa growth rate at 0.1 uM
# [5] = tested on: Oryza sativa; test: Effect on Oryza sativa (rice) assessed as growth rate at 1 uM relative to control; assay type: organism-based; details: in vivo
# [6] = tested on: Oryza sativa; test: Effect on Oryza sativa (rice) assessed as growth rate at 0.1 uM relative to control; assay type: organism-based; details: in vivo
# [7] = tested on: Oryza sativa; test: Relieving activity against bensulfuron-methyl induced injury to Oryza sativa (rice) assessed as growth rate at 0.1 uM (Rbv = 46 to 53%); assay type: functional
# [8] = tested on: Oryza sativa; test: Safener indices, ratio of compound effect of Oryza sativa (rice) growth rate to relieving activity against bensulfuron-methyl induced injury to Oryza sativa growth rate at 1 uM
# [9] = tested on: Oryza sativa; test: Safener indices, ratio of compound effect of Oryza sativa (rice) growth rate to relieving activity against bensulfuron-methyl induced injury to Oryza sativa growth rate at 10 uM
# [10] = tested on: Oryza sativa; test: Relieving activity against bensulfuron-methyl induced injury to Oryza sativa (rice) assessed as growth rate at 10 uM (Rbv = 46 to 53%); assay type: functional
compound,measurement,setting,value
CC(C)c1cccc(NC(=O)N[C@@H](C)c2ccccc2)c1,log K,[1],0.58
same,Activity,[2],55%
same,Activity,[3],86%
same,Ratio,[4],6
same,Activity,[5],84%
same,Activity,[6],95%
same,Activity,[7],47%
same,Ratio,[8],26
same,Ratio,[9],47
same,Activity,[10],68%
Cc1ccc(NC(=O)NC(C)(C)c2ccccc2)cc1 [DAIMURON],log K,[1],0.487
same,Activity,[2],88%
same,Activity,[3],77%
same,Ratio,[4],47
same,Activity,[5],89%
same,Activity,[6],99%
same,Activity,[7],74%
same,Ratio,[8],78
same,Ratio,[9],66
same,Activity,[10],79%
CC(=O)c1cccc(NC(=O)N[C@H](C)c2ccccc2)c1,log K,[1],0.245
same,Activity,[2],57%
same,Activity,[3],73%
same,Ratio,[4],5
same,Activity,[5],88%
same,Activity,[6],98%
same,Activity,[7],50%
same,Ratio,[8],25
same,Ratio,[9],41
same,Activity,[10],62%
CCc1ccc(NC(=O)N[C@@H](C)c2ccccc2)cc1,log K,[1],0.487
same,Activity,[2],80%
same,Activity,[3],91%
same,Ratio,[4],7
same,Activity,[5],95%
same,Activity,[6],99%
same,Activity,[7],74%
same,Ratio,[8],62
same,Ratio,[9],72
same,Activity,[10],84%
C[C@H](NC(=O)Nc1cc(F)ccc1F)c1ccccc1,log K,[1],0.464
same,Activity,[2],89%
same,Activity,[3],99%
same,Ratio,[4],47
same,Activity,[5],98%
same,Activity,[6],100%
same,Activity,[7],74%
same,Ratio,[8],77
same,Ratio,[9],92
same,Activity,[10],96%
C[C@@H](NC(=O)Nc1ccc(C(F)(F)F)cc1)c1ccccc1,log K,[1],0.537
same,Activity,[2],74%
same,Activity,[3],82%
same,Ratio,[4],22
same,Activity,[5],89%
same,Activity,[6],93%
same,Activity,[7],59%
same,Ratio,[8],53
same,Ratio,[9],42
same,Activity,[10],67%
C[C@H](NC(=O)Nc1ccccc1I)c1ccccc1,log K,[1],0.502
same,Activity,[2],85%
same,Activity,[3],98%
same,Ratio,[4],32
same,Activity,[5],100%
same,Activity,[6],99%
same,Activity,[7],67%
same,Ratio,[8],70
same,Ratio,[9],77
same,Activity,[10],89%
CC(=O)c1ccc(NC(=O)N[C@@H](C)c2ccccc2)cc1,log K,[1],0.227
same,Activity,[2],81%
same,Activity,[3],96%
same,Ratio,[4],24
same,Activity,[5],99%
same,Activity,[6],99%
same,Activity,[7],60%
same,Ratio,[8],63
same,Ratio,[9],74
same,Activity,[10],86%
C[C@H](NC(=O)Nc1ccccc1Br)c1ccccc1,log K,[1],0.504
same,Activity,[2],87%
same,Activity,[3],102%
same,Ratio,[4],32
same,Activity,[5],99%
same,Activity,[6],101%
same,Activity,[7],67%
same,Ratio,[8],74
same,Ratio,[9],97
same,Activity,[10],98%
C[C@@H](NC(=O)Nc1cccc(C(F)(F)F)c1F)c1ccccc1,log K,[1],0.624
same,Activity,[2],90%
same,Activity,[3],98%
same,Ratio,[4],33
same,Activity,[5],99%
same,Activity,[6],99%
same,Activity,[7],68%
same,Ratio,[8],79
same,Ratio,[9],92
same,Activity,[10],96%
CCCCCCCc1ccc(NC(=O)N[C@H](C)c2ccccc2)cc1,log K,[1],1.266
same,Activity,[2],52%
same,Activity,[3],100%
same,Ratio,[4],5
same,Activity,[5],100%
same,Activity,[6],100%
same,Activity,[7],51%
same,Ratio,[8],5
same,Ratio,[9],9
same,Activity,[10],53%
COc1ccc(NC(=O)N[C@H](C)c2ccccc2)cc1,log K,[1],0.211
same,Activity,[2],58%
same,Activity,[3],93%
same,Ratio,[4],-11
same,Activity,[5],101%
same,Activity,[6],109%
same,Activity,[7],53%
same,Ratio,[8],7
same,Ratio,[9],56
same,Activity,[10],78%
C[C@H](NC(=O)Nc1cccc(Cl)c1)c1ccccc1,log K,[1],0.47
same,Activity,[2],79%
same,Activity,[3],103%
same,Ratio,[4],31
same,Activity,[5],99%
same,Activity,[6],103%
same,Activity,[7],68%
same,Ratio,[8],57
same,Ratio,[9],82
same,Activity,[10],92%
CCOC(=O)c1ccccc1NC(=O)N[C@@H](C)c1ccccc1,log K,[1],0.667
same,Activity,[2],60%
same,Activity,[3],100%
same,Ratio,[4],0
same,Activity,[5],100%
same,Activity,[6],100%
same,Activity,[7],50%
same,Ratio,[8],21
same,Ratio,[9],34
same,Activity,[10],67%
CC(C)c1ccc(NC(=O)N[C@@H](C)c2ccccc2)cc1,log K,[1],0.577
same,Activity,[2],83%
same,Activity,[3],86%
same,Ratio,[4],21
same,Activity,[5],96%
same,Activity,[6],98%
same,Activity,[7],57%
same,Ratio,[8],69
same,Ratio,[9],66
same,Activity,[10],79%
Cc1cc(F)ccc1NC(=O)N[C@H](C)c1ccccc1,log K,[1],0.356
same,Activity,[2],57%
same,Activity,[3],94%
same,Ratio,[4],3
same,Activity,[5],100%
same,Activity,[6],100%
same,Activity,[7],54%
same,Ratio,[8],9
same,Ratio,[9],48
same,Activity,[10],74%
CCOC(=O)c1ccccc1NC(=O)N[C@H](C)c1ccccc1,log K,[1],0.667
same,Activity,[2],63%
same,Activity,[3],100%
same,Ratio,[4],6
same,Activity,[5],100%
same,Activity,[6],100%
same,Activity,[7],53%
same,Ratio,[8],25
same,Ratio,[9],54
same,Activity,[10],77%
COc1ccccc1NC(=O)N[C@@H](C)c1ccccc1,log K,[1],0.343
same,Activity,[2],68%
same,Activity,[3],95%
same,Ratio,[4],9
same,Activity,[5],99%
same,Activity,[6],98%
same,Activity,[7],55%
same,Ratio,[8],28
same,Ratio,[9],46
same,Activity,[10],74%
C[C@H](NC(=O)Nc1cc(C(F)(F)F)ccc1F)c1ccccc1,log K,[1],0.64
same,Activity,[2],79%
same,Activity,[3],87%
same,Ratio,[4],26
same,Activity,[5],89%
same,Activity,[6],98%
same,Activity,[7],64%
same,Ratio,[8],59
same,Ratio,[9],70
same,Activity,[10],84%
C[C@@H](NC(=O)Nc1cccc(F)c1)c1ccccc1,log K,[1],0.363
same,Activity,[2],57%
same,Activity,[3],84%
same,Ratio,[4],-4
same,Activity,[5],95%
same,Activity,[6],99%
same,Activity,[7],47%
same,Ratio,[8],22
same,Ratio,[9],44
same,Activity,[10],67%
C[C@H](NC(=O)Nc1cccc(F)c1)c1ccccc1,log K,[1],0.363
same,Activity,[2],74%
same,Activity,[3],88%
same,Ratio,[4],21
same,Activity,[5],94%
same,Activity,[6],97%
same,Activity,[7],59%
same,Ratio,[8],51
same,Ratio,[9],62
same,Activity,[10],79%
C[C@H](NC(=O)Nc1ccccc1C(C)(C)C)c1ccccc1,log K,[1],0.535
same,Activity,[2],57%
same,Activity,[3],100%
same,Ratio,[4],3
same,Activity,[5],99%
same,Activity,[6],101%
same,Activity,[7],52%
same,Ratio,[8],14
same,Ratio,[9],31
same,Activity,[10],66%
CC(=O)c1ccccc1NC(=O)N[C@H](C)c1ccccc1,log K,[1],0.432
same,Activity,[2],51%
same,Activity,[3],89%
same,Ratio,[4],1
same,Activity,[5],95%
same,Activity,[6],96%
same,Activity,[7],46%
same,Ratio,[8],10
same,Ratio,[9],49
same,Activity,[10],71%
Cc1ccc(NC(=O)N[C@H](C)c2ccccc2)cc1,log K,[1],0.367
same,Activity,[2],70%
same,Activity,[3],64%
same,Ratio,[4],9
same,Activity,[5],98%
same,Activity,[6],100%
same,Activity,[7],54%
same,Ratio,[8],41
same,Ratio,[9],46
same,Activity,[10],63%
Cc1ccc(NC(=O)N[C@H](C)c2ccccc2)c(F)c1,log K,[1],0.459
same,Activity,[2],79%
same,Activity,[3],99%
same,Ratio,[4],11
same,Activity,[5],99%
same,Activity,[6],98%
same,Activity,[7],57%
same,Ratio,[8],55
same,Ratio,[9],78
same,Activity,[10],89%
C[C@@H](NC(=O)Nc1ccc(Br)cc1)c1ccccc1,log K,[1],0.488
same,Activity,[2],77%
same,Activity,[3],87%
same,Ratio,[4],5
same,Activity,[5],95%
same,Activity,[6],100%
same,Activity,[7],53%
same,Ratio,[8],55
same,Ratio,[9],76
same,Activity,[10],86%
CC(C)c1cccc(NC(=O)N[C@H](C)c2ccccc2)c1,log K,[1],0.58
same,Activity,[2],48%
same,Activity,[3],44%
same,Ratio,[4],16
same,Activity,[5],61%
same,Activity,[6],74%
same,Activity,[7],45%
same,Ratio,[8],27
same,Ratio,[9],29
same,Activity,[10],43%
Cc1ccccc1NC(=O)N[C@H](C)c1ccccc1,log K,[1],0.337
same,Activity,[2],55%
same,Activity,[3],99%
same,Ratio,[4],6
same,Activity,[5],100%
same,Activity,[6],100%
same,Activity,[7],52%
same,Ratio,[8],12
same,Ratio,[9],42
same,Activity,[10],71%
